According to patent publication US20070105085A1 (Scripps Research, published 2007):
“Also recorded” adds a separate entry of the source.

Assays:
[1] = molecular target: MsbA from Salmonella typhimurium (detergent solubilized, purified) (Salmonella typhimurium) (UniProt P63359); assay: cell-based or functional assay
MsbA [2] = molecular target: T1, MsbA (Salmonella typhimurium, UniProt P63359); assay: ATPase activity of detergent solubilized MsbA, linked enzyme assay; format: biochemical
T1 construct: 23-residue pET19b fusion leader with deca-histidine tag (N); made in house; host or cells: E. coli BL21 (DE3)
Description: ATPase Activity. ATPase activity was measured using an ATP-regenerating system described by Vogel and Steinhart, and modified by Urbatsch et al. Briefly, 1 μg of MsbA was added to 100 μl of Linked Enzyme (LE) buffer at 37° C. containing 10 mM ATP, 12 mM MgCl2, 6 mM phosphoenolpyruvate (PEP), 1 mM NADH, 10 units of lactate dehydrogenase (LDH), 10 units of pyruvate kinase (PK), and 50 mM Tris-HCl, pH 7.5. ATP hydrolysis was measured as the decrease in absorbance of NADH at 340 nm using a DXT880 multiplate spectrofluorimeter (Beckman-Coulter). Activity of MsbA in the presence of either E. coli polar lipids (10 μg/ml) or a non-ABC, ATPase inhibitor cocktail (1 mM EGTA, 1 mM NaN3, 0.2 mM ouabain) was measured (FIGS. 28-30). Each data point is the average of 5 independent measurements with standard error bars shown.

[3] = test system: ΔacrAB E. coli cells overexpressing MsbA; assay: Doxorubicin retention in ΔacrAB E. coli cells overexpressing MsbA; format: cell-based; conditions: 0-100 μM PSC; change of fluorescence at 400 sec versus 0 sec; P<0.05
Description: Doxorubicin Retention. A pET 15b vector containing the msbA gene from Salmonella typhimurium LT2 was transformed into an E. coli strain deficient in the multiple-drug efflux pump AcrAB (ECΔacrAB). Single colony cultures were grown to optical density (OD600 nm) of 0.6 in the presence of 1 mM IPTG to induce overexpression of MsbA, harvested and washed three times with 100 mM potassium phosphate buffer (pH 7.5) containing 5 mM MgSO4 and concentrated to an OD600 of 20. Cellular accumulation of doxorubicin was accomplished by incubation of cells with 11.5 μM doxorubicin and 40 μM carbonyl cyanide m-chlorophenylhydrazone (CCCP) while shaking for 1 hour at 37° C. The cells were then washed three times and incubated for 15 minutes at 37° C. with 40 μM CCCP and 0, 1, 10, 25, 50 or 100 μM PSC. Efflux was initiated by addition of 25 mM glucose and fluorescence in the cell suspensions was monitored at 16-second time intervals with a DXT880 multiplate spectrofluorimeter (Beckman-Coulter) with excitation at 485 nm and emission at 595 nm for 900 seconds. […] Cellular doxorubicin retention was measured as a change of fluoresence at time=400 sec versus time=0 sec. […] Results are the average of 3 experiments, with 3-8 measurements per experiment. Statistical significance was assigned with the two-way analysis of variance (ANOVA). A P<0.05 is considered significant.

P-gp = conditions: human and murine MDR cell lines; cited from earlier work
Wild type E. coli cells = assay: Doxorubicin retention in wild type E. coli cells; format: cell-based; conditions: 50 μM PSC
MsbA [4] = molecular target: MsbA (Escherichia coli, UniProt P60752); conditions: cited from earlier work
[5] = molecular target: the molecule itself; assay: X-ray crystal structure of MsbA.ADP.Vi.Ra LPS, 4.2 Å

MsbA (Escherichia coli, UniProt P60752), sequence (P60752 whole entry, species assumed): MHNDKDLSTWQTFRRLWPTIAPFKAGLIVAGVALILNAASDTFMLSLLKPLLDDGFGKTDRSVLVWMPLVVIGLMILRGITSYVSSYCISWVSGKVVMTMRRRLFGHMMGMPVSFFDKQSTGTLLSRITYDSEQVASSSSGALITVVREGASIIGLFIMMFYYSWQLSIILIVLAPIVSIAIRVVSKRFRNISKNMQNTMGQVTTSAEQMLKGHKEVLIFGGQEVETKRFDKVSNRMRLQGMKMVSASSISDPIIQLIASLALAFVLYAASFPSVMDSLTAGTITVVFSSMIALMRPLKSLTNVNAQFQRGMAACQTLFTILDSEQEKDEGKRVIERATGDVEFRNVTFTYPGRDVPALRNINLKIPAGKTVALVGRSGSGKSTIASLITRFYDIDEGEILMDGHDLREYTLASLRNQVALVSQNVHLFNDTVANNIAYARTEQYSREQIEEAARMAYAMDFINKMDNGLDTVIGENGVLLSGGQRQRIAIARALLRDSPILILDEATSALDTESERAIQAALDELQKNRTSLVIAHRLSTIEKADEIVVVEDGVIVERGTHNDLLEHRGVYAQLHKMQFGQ

**Q.** For “PSC-833, [3'-Desoxy-3'-oxo-MeBmt]1-[Val]2-Ciclosporin (peptide)”, which ATPase activity of detergent solubilized MsbA (linked enzyme assay) (% over basal activity) [1] is on record?
**A.** The ATPase activity of detergent solubilized MsbA (linked enzyme assay) (% over basal activity) was less than 55.

**Q.** Which “effect on ATPase activity” value (MsbA [2]) does the source give for COc1cccc2c1C(=O)c1c(O)c3c(c(O)c1C2=O)C[C@@](O)(C(=O)CO)C[C@@H]3O[C@H]1C[C@H](N)[C@H](O)[C@H](C)O1 [Doxorubicin, doxorubicin] here?
**A.** Its value is “stimulates ATPase activity in a dose dependent manner”.

**Q.** And the “concentration of maximum stimulation of ATPase activity” value (MsbA [2]; dose dependent stimulation)?
**A.** Its value is 100 µM.

**Q.** For C/C=C/C[C@@H](C)C(=O)[C@H]1C(=O)N[C@@H](C(C)C)C(=O)N(C)CC(=O)N(C)[C@@H](CC(C)C)C(=O)N[C@@H](C(C)C)C(=O)N(C)[C@@H](CC(C)C)C(=O)N[C@@H](C)C(=O)N[C@H](C)C(=O)N(C)[C@@H](CC(C)C)C(=O)N(C)[C@@H](CC(C)C)C(=O)N(C)[C@@H](C(C)C)C(=O)N1C [PSC, [3′-Desoxy-3′-oxo-MeBmt]^1-[Val]^2-Ciclosporin], which doxorubicin retention [3] is on record?
**A.** Its doxorubicin retention is “alters the retention of doxorubicin; also recorded: mediates doxorubicin retention”.

**Q.** And the “inhibition of P-gp mediated drug accumulation” value (P-gp)?
**A.** The value was “potent inhibitor”.

**Q.** What about the “increase in doxorubicin retention” value (Wild type E. coli cells) of the same molecule?
**A.** The value was “less than 10%”.

**Q.** And the “stimulation of ATPase over basal activity” value (MsbA [2]; PSC at concentrations of 50-250 μM, basal activity 1.25 μmol ATP/min/mg of protein)?
**A.** The value was “up to 55%”.

**Q.** And the “effect on MsbA ATPase activity” value (MsbA [2]; concentrations less than 50 μM)?
**A.** The value was “modulated”.

**Q.** What about the “effect on doxorubicin stimulated ATPase activity of MsbA” value (MsbA [2]; doxorubicin stimulated) of the same molecule?
**A.** The value was “modulates doxorubicin stimulated ATPase activity”.

**Q.** For lipid A, which “stimulation of MsbA ATPase” value (MsbA [4]; studies in vitro) is on record?
**A.** The value was “specifically stimulated”.

**Q.** For CCCCCCCCCCCCCC(=O)O[C@H](CCCCCCCCCCC)CC(=O)O[C@@H]1[C@@H](NC(=O)C[C@@H](CCCCCCCCCCC)OC(=O)CCCCCCCCCCC)[C@H](OC[C@H]2O[C@H](OP(=O)(O)O)[C@H](NC(=O)C[C@H](O)CCCCCCCCCCC)[C@@H](OC(=O)C[C@H](O)CCCCCCCCCCC)[C@@H]2O)O[C@H](CO[C@]2(C(=O)O)C[C@@H](O[C@]3(C(=O)O)C[C@@H](O)[C@@H](O)[C@@H]([C@H](O)CO)O3)[C@@H](O)[C@@H]([C@H](O)CO)O2)[C@H]1OP(=O)(O)O [Kdo2-lipid A], which “stimulatory effect on ATP activity of MsbA” value (MsbA [4]; compared with Ra LPS) is on record?
**A.** The value was “larger stimulatory effect”.

B1: MsbA from Salmonella typhimurium (detergent solubilized, purified) (other)
chain: MHNDKDLSTWQTFRRLWPTIAPFKAGLIVAGIALILNAASDTFMLSLLKPLLDDGFGKTDRSVLLWMPLVVIGLMILRGITSYISSYCISWVSGKVVMTMRRRLFGHMMGMPVAFFDKQSTGTLLSRITYDSEQVASSSSGALITVVREGASIIGLFIMMFYYSWQLSIILVVLAPIVSIAIRVVSKRFRSISKNMQNTMGQVTTSAEQMLKGHKEVLIFGGQEVETKRFDKVSNKMRLQGMKMVSASSISDPIIQLIASLALAFVLYAASFPSVMDSLTAGTITVVFSSMIALMRPLKSLTNVNAQFQRGMAACQTLFAILDSEQEKDEGKRVIDRATGDLEFRNVTFTYPGREVPALRNINLKIPAGKTVALVGRSGSGKSTIASLITRFYDIDEGHILMDGHDLREYTLASLRNQVALVSQNVHLFNDTVANNIAYARTEEYSREQIEEAARMAYAMDFINKMDNGLDTIIGENGVLLSGGQRQRIAIARALLRDSPILILDEATSALDTESERAIQAALDELQKNRTSLVIAHRLSTIEQADEIVVVEDGIIVERGTHSELLAQHGVYAQLHKMQFGQ
notes: also called ST-MsbA; ABC Transporter MsbA
**Q.** Does B1 bind [5]?
**A.** Result: binds
